Experimental data published in ChEMBL document CHEMBL5724709, “EUbOPEN Chemogenomics Library - IncuCyte” (2024).

Assays:
Assay type in all cases: toxicity, cell-based
HEK-293T = experiment: Incucyte cell viability with HEK293T; conditions: human, 24 h, 10 µM, compound concentration 10 uM
U2OS = experiment: Incucyte cell viability with U2OS; conditions: human, 24 h, 10 µM, compound concentration 10 uM
Fibroblast = experiment: Incucyte cell viability with human fibroblast; conditions: 24 h, 10 µM, compound concentration 10 uM
Also: unitless GR value; below 1 slowed growth and below 0 cell loss.

CNC(=O)N1CCc2c(c(N3CCCc4cc(-c5cnn(C)c5)c(C(F)F)cc43)nn2C2CCOCC2)C1
Growth Rate (HEK-293T; replicate number 1): 0.56 | Growth Rate (HEK-293T; replicate number 2): 0.52 | Growth Rate (U2OS; replicate number 1): 0.76 | Growth Rate (U2OS; replicate number 2): 1 | Growth Rate (Fibroblast; replicate number 1): 1 | Growth Rate (Fibroblast; replicate number 2): 0.36

Cc1cc2cc(NS(=O)(=O)c3ccc(C#N)cc3)ccc2n(C)c1=O
Growth Rate (HEK-293T; replicate number 1): 0.88 | Growth Rate (U2OS; replicate number 1): 1 | Growth Rate (Fibroblast; replicate number 1): 0.71 | Growth Rate (Fibroblast; replicate number 2): 0.65

Cc1ncsc1-c1ccc([C@H](C)NC(=O)[C@@H]2C[C@@H](O)CN2C(=O)[C@@H](NC(=O)COCCCOCCNC(=O)C[C@@H]2N=C(c3ccc(Cl)cc3)c3c(sc(C)c3C)-n3c(C)nnc32)C(C)(C)C)cc1
Growth Rate (HEK-293T; replicate number 1): 0.46 | Growth Rate (HEK-293T; replicate number 2): 0.43 | Growth Rate (U2OS; replicate number 1): -0.38 | Growth Rate (U2OS; replicate number 2): 0.03 | Growth Rate (Fibroblast; replicate number 1): -0.26 | Growth Rate (Fibroblast; replicate number 2): -0.44

Cc1ncsc1-c1ccc(CNC(=O)[C@@H]2C[C@@H](O)CN2C(=O)[C@@H](NC(=O)COCCOCCOCCNC(=O)C[C@@H]2N=C(c3ccc(Cl)cc3)c3c(sc(C)c3C)-n3c(C)nnc32)C(C)(C)C)cc1
Growth Rate (HEK-293T; replicate number 1): 0.01 | Growth Rate (HEK-293T; replicate number 2): 0.16 | Growth Rate (U2OS; replicate number 1): -0.19 | Growth Rate (U2OS; replicate number 2): 0.31 | Growth Rate (Fibroblast; replicate number 1): 0.23 | Growth Rate (Fibroblast; replicate number 2): -0.26

FC(F)(F)Oc1ccc(Oc2ccnc(N3CCC(NC(=S)Nc4cccnc4)CC3)c2Cl)c(Cl)c1
Growth Rate (HEK-293T; replicate number 1): -0.1 | Growth Rate (HEK-293T; replicate number 2): 0.12 | Growth Rate (U2OS; replicate number 1): 0.35 | Growth Rate (U2OS; replicate number 2): 0.56 | Growth Rate (Fibroblast; replicate number 1): 0.38 | Growth Rate (Fibroblast; replicate number 2): -0.07

Cc1nn(CC(F)(F)F)cc1Nc1ncc(Br)c(NCc2ccc(S(N)(=O)=O)cc2)n1
Growth Rate (HEK-293T; replicate number 1): 0.53 | Growth Rate (HEK-293T; replicate number 2): 1 | Growth Rate (U2OS; replicate number 1): 1 | Growth Rate (U2OS; replicate number 2): 0.83 | Growth Rate (Fibroblast; replicate number 1): 1

Cc1cc(-c2ccccc2)cc(C(=O)NNS(=O)(=O)c2ccccc2)c1F
Growth Rate (HEK-293T; replicate number 1): 0.49 | Growth Rate (HEK-293T; replicate number 2): 0.81 | Growth Rate (U2OS; replicate number 1): 0.87 | Growth Rate (U2OS; replicate number 2): 0.89 | Growth Rate (Fibroblast; replicate number 1): 1 | Growth Rate (Fibroblast; replicate number 2): 0.27

O=C(NCCc1cc(C(=O)NO)no1)c1ccc(Cl)c(Cl)c1
Growth Rate (HEK-293T; replicate number 1): 0.99 | Growth Rate (HEK-293T; replicate number 2): 1 | Growth Rate (U2OS; replicate number 1): 0.33 | Growth Rate (U2OS; replicate number 2): 1 | Growth Rate (Fibroblast; replicate number 1): 1 | Growth Rate (Fibroblast; replicate number 2): 0.22

C[C@H](Nc1cc(Cl)nc2c1cnn2[C@@H]1O[C@H](COP(=O)(O)CP(=O)(O)O)[C@@H](O)[C@H]1O)c1ccccc1F
Growth Rate (HEK-293T; replicate number 1): 0.88 | Growth Rate (HEK-293T; replicate number 2): 1 | Growth Rate (U2OS; replicate number 1): 1 | Growth Rate (Fibroblast; replicate number 1): 0.88 | Growth Rate (Fibroblast; replicate number 2): 1

C[C@H]1CCCN1Cc1nc2cc(NC(=O)c3ccc4c(cnn4C)c3)ccc2[nH]1
Growth Rate (HEK-293T; replicate number 1): 0.37 | Growth Rate (HEK-293T; replicate number 2): 0.49 | Growth Rate (U2OS; replicate number 1): 0.16 | Growth Rate (U2OS; replicate number 2): 0.68 | Growth Rate (Fibroblast; replicate number 1): 1 | Growth Rate (Fibroblast; replicate number 2): 0.78

N#Cc1ccc([C@H]2CCCC[C@H]2O)cc1C(F)(F)F
Growth Rate (HEK-293T; replicate number 1): 0.83 | Growth Rate (HEK-293T; replicate number 2): 0.95 | Growth Rate (U2OS; replicate number 1): 1 | Growth Rate (U2OS; replicate number 2): 0.84 | Growth Rate (Fibroblast; replicate number 1): 0.21 | Growth Rate (Fibroblast; replicate number 2): 1

C[C@H](CN[C@@H](C(=O)Nc1ccc(-c2cnn(C)c2)cn1)c1ccccc1)c1ccc(C#N)cc1
Growth Rate (HEK-293T; replicate number 1): 0.04 | Growth Rate (HEK-293T; replicate number 2): 0.3 | Growth Rate (U2OS; replicate number 1): 0.58 | Growth Rate (U2OS; replicate number 2): 0.39 | Growth Rate (Fibroblast; replicate number 1): 0.34 | Growth Rate (Fibroblast; replicate number 2): -0.53

O=S(=O)(O)c1ccc2cc(/N=N/c3cc(S(=O)(=O)O)c4cccnc4c3O)ccc2c1
Growth Rate (HEK-293T; replicate number 1): 1 | Growth Rate (U2OS; replicate number 1): -0.34 | Growth Rate (U2OS; replicate number 2): 1 | Growth Rate (Fibroblast; replicate number 1): 0.17 | Growth Rate (Fibroblast; replicate number 2): -0.42

CCCOc1cccc(Oc2cc3c(cc2NS(=O)(=O)c2cccc(C(=O)NCCOCCOCCOCC(=O)N[C@H](C(=O)N4C[C@H](O)C[C@H]4C(=O)NCc4ccc(-c5scnc5C)cc4)C(C)(C)C)c2)n(C)c(=O)n3C)c1
Growth Rate (HEK-293T; replicate number 1): 0.11 | Growth Rate (HEK-293T; replicate number 2): 0.31 | Growth Rate (U2OS; replicate number 1): 0.91 | Growth Rate (U2OS; replicate number 2): 0.63 | Growth Rate (Fibroblast; replicate number 1): 1

O=C1/C(=N/Nc2ccc(S(=O)(=O)O)cc2)C(c2ccc([N+](=O)[O-])cc2)=NN1c1ccccc1
Growth Rate (HEK-293T; replicate number 1): 0.59 | Growth Rate (HEK-293T; replicate number 2): 1 | Growth Rate (U2OS; replicate number 1): 0.88 | Growth Rate (U2OS; replicate number 2): 1 | Growth Rate (Fibroblast; replicate number 1): 1

Cc1ncsc1-c1ccc(CNC(=O)[C@@H]2C[C@@H](O)CN2C(=O)[C@@H](NC(=O)COCC(C)(COCCOCCOCCNC(=O)C[C@@H]2N=C(c3ccc(Cl)cc3)c3c(sc(C)c3C)-n3c(C)nnc32)COCCOCCOCCNC(=O)C[C@@H]2N=C(c3ccc(Cl)cc3)c3c(sc(C)c3C)-n3c(C)nnc32)C(C)(C)C)cc1
Growth Rate (HEK-293T; replicate number 1): 1 | Growth Rate (U2OS; replicate number 1): 0.43 | Growth Rate (U2OS; replicate number 2): 0.95 | Growth Rate (Fibroblast; replicate number 1): 1

CCCn1/c(=N/C(=O)c2cccc(C(N)=O)c2)[nH]c2ccccc21
Growth Rate (HEK-293T; replicate number 1): 0.77 | Growth Rate (HEK-293T; replicate number 2): 0.9 | Growth Rate (U2OS; replicate number 1): 1 | Growth Rate (U2OS; replicate number 2): 0.99 | Growth Rate (Fibroblast; replicate number 1): 1

Cn1c(=O)c2c(nc(N3CCNCC3)n2Cc2nnc(-c3ccc(Cl)c(Cl)c3)o2)n(C)c1=O
Growth Rate (HEK-293T; replicate number 1): 0.79 | Growth Rate (HEK-293T; replicate number 2): 1 | Growth Rate (U2OS; replicate number 1): 1 | Growth Rate (U2OS; replicate number 2): 0.88 | Growth Rate (Fibroblast; replicate number 1): 1

COc1cc(O)c2c(c1)/C=C\C[C@H](O)[C@H](O)C(=O)/C=C\C[C@H](C)OC2=O
Growth Rate (HEK-293T; replicate number 1): -0.3 | Growth Rate (HEK-293T; replicate number 2): -0.25 | Growth Rate (U2OS; replicate number 1): -0.54 | Growth Rate (U2OS; replicate number 2): -0.35 | Growth Rate (Fibroblast; replicate number 1): -0.67 | Growth Rate (Fibroblast; replicate number 2): -0.85
